Assay results: patent US20050246797A1, “Gene participating in the synthesis of brassinosteroid” (priority 2002, published 2005)
Like-named read-outs stand apart in the source and are kept apart here.

Tests used:
[1] = Concentrations of brassinosteroids in Arabidopsis strains by HPLC and GC-MS
Method: The concentrations of brassinosteroids were determined in wild strains (Ws-2), the strain of reference example 1 (rot3-1 and rot3-5, suppressed function of ROT3) and the strain of reference example 3 (rot3/CYP90D1, suppressed function of ROT3 and CYP90D1) of Arabidoposis. The concentration was determined by harvesting the ground part of the plants at the time of rosette formation by reaping, by freezing and drying, and by detecting using HPLC and GC-MS.

[2] = system: strains of suppressed function of both ROT3 and CYP90D1; experiment: Treatment of plants/leaves of the ROT3- and CYP90D1-suppressed strain with brassinosteroid intermediates or brassinolide (leaf morphology, FIG. 3); type: in vivo, Arabidopsis; details: aqueous solution 0.1 μM, submersion with gentle shaking
Method: The strain with suppressed function of both ROT3 and CYP90D1 prepared in reference example 2 was cultured from seeds in sterilized conditions. The seeds of the above-described strain were seeded on the MS medium (solidified by 0.2% Gelrite) supplemented with 2% (w/v) sucrose and were conventionally cultured at 23° C. under continuous illumination after seeding under sterilized conditions.
The above-described plants (strains of suppressed function of both ROT3 and CYP90D1) were cultured in the above-described aqueous solution at the level of submersion under the solution with gently shaking. In the case of the treatment of leaves with the above-described intermediates or brassionolide, leafstalks were cut out by a surgical knife after taking out the plants under sterilized conditions and were treated in the same way. […] Namely, ROT3 and CYP90D1 are cooperatively involved in the synthesis of brassinolide, the final product of the biosynthetic pathway of brassinosteriods.

[3] = rot3/CYP90D1 (suppressed function of ROT3 and CYP90D1), ground part of plants at rosette formation

Row | Compound | amount in the strain with suppressed function of both ROT3 and CYP90D1 ([1]; rot3/CYP90D1, in words) | concentration of brassinosteroid, rot3/CYP90D1 [1, 3] | concentration of brassinosteroid, rot3/CYP90D1 [1] [ng/g] | effect on leaf size/morphology of plants without the function of ROT3 and CYP90D1 [2]
1 | CC(C)[C@H](C)[C@@H](O)[C@H](O)[C@@H](C)[C@H]1CC[C@H]2[C@@H]3CC[C@H]4C[C@H](O)CC[C@]4(C)[C@H]3CC[C@]12C [3-Deoxotyphasterol] | – | 0.38 ng/g | – | –
2 | CC(C)[C@H](C)[C@@H](O)[C@H](O)[C@@H](C)[C@H]1CC[C@H]2[C@@H]3CC[C@H]4C[C@H](O)[C@H](O)C[C@]4(C)[C@H]3CC[C@]12C [6-Deoxocastasterone] | – | – | 0.034 | –
3 | CC(C)[C@H](C)[C@@H](O)[C@H](O)[C@@H](C)[C@H]1CC[C@H]2[C@@H]3CC[C@H]4C[C@@H](O)CC[C@]4(C)[C@H]3CC[C@]12C [6-Deoxoteasterone] | – | 0.26 ng/g | – | –
4 | CC(C)[C@H](C)[C@@H](O)[C@H](O)[C@@H](C)C1CCC2C3OC(=O)[C@H]4C[C@H](O)[C@H](O)C[C@]4(C)C3CC[C@@]21C (stereo partly shown) [Brassinolide] | extremely decreased | — (— in the table shows that the value is less than the limit of detection (0.001 ng/g)) | – | induced large size of leaves
5 | CC(C)[C@H](C)[C@@H](O)[C@H](O)[C@@H](C)[C@H]1CC[C@H]2[C@@H]3CC(=O)[C@H]4C[C@H](O)[C@H](O)C[C@]4(C)[C@H]3CC[C@]12C [Castasterone] | – | 0.020 ng/g | – | –
